According to patent US6680340B2, “Anti-hypercholesterolemic drug combination” (Merck & Co., Inc., priority 2000, dated 2004):

Tests used:
Serum cholesterol = Serum cholesterol lowering in dogs dosed 15 days with fenofibrate, CGS23425 or the combination; type: in vivo
Description: Dogs were administered 50 mg/kg/day fenofibrate alone, 10 μg/kg/day CGS23425 alone, or the combination of 50 mg/kg/day fenofibrate +10 μg/kg/day CGS23425 for a period of 15 days. Cholesterol lowering was measured on treatment days 6, 8, 10, 13, 14, and 15.

Serum total cholesterol = Serum total cholesterol lowering in rats dosed 9 days with CGS23425 in diet with and without fenofibrate
Description: Male Sprague-Dawley rats (wt 125-150 g, 10 per group) were acclimated for one week with a normal chow (Purina #5001 powder) and had free access to drinking water. The animals, with increased weight to about 200 to 250 grams, were dosed 9 days with various doses of CGS23425 (0, 0.005, 0.05 and 0.5 ppm in diet, where total diet consumption was about 10 to 15 grams per day) with and without the presence of 25 mg/kg of body weight of fenofibrate given via oral gavage once a day. After the dosing period, the animals were fasted for 18 hours and euthanized and the blood was withdrawn via cardiac puncture.

Row | SMILES | Serum cholesterol lowering in dogs (% reduction) (Serum cholesterol; CGS23425 10 μg/kg/day alone, treatment day 6) | Serum cholesterol lowering in dogs (% reduction) (Serum cholesterol; CGS23425 10 μg/kg/day alone, treatment day 8) | Serum cholesterol lowering in dogs (% reduction) (Serum cholesterol; CGS23425 10 μg/kg/day alone, treatment day 10) | Serum cholesterol lowering in dogs (% reduction) (Serum cholesterol; CGS23425 10 μg/kg/day alone, treatment day 13) | Serum cholesterol lowering in dogs (% reduction) (Serum cholesterol; CGS23425 10 μg/kg/day alone, treatment day 14) | Serum cholesterol lowering in dogs (% reduction) (Serum cholesterol; CGS23425 10 μg/kg/day alone, treatment day 15) | Serum cholesterol lowering in rats (% reduction) (Serum total cholesterol; CGS23425 0.005 ppm in diet alone (fenofibrate 0 mg/kg)) | Serum cholesterol lowering in rats (% reduction) (Serum total cholesterol; CGS23425 0.05 ppm in diet alone (fenofibrate 0 mg/kg)) | Serum cholesterol lowering in rats (% reduction) (Serum total cholesterol; CGS23425 0.5 ppm in diet alone (fenofibrate 0 mg/kg)) | Serum cholesterol lowering in dogs (% reduction) (Serum cholesterol; fenofibrate 50 mg/kg/day alone, treatment day 6) | Serum cholesterol lowering in dogs (% reduction) (Serum cholesterol; fenofibrate 50 mg/kg/day alone, treatment day 8) | Serum cholesterol lowering in dogs (% reduction) (Serum cholesterol; fenofibrate 50 mg/kg/day alone, treatment day 10) | Serum cholesterol lowering in dogs (% reduction) (Serum cholesterol; fenofibrate 50 mg/kg/day alone, treatment day 13) | Serum cholesterol lowering in dogs (% reduction) (Serum cholesterol; fenofibrate 50 mg/kg/day alone, treatment day 14) | Serum cholesterol lowering in dogs (% reduction) (Serum cholesterol; fenofibrate 50 mg/kg/day alone, treatment day 15) | Serum cholesterol lowering in rats (% reduction) (Serum total cholesterol; fenofibrate 25 mg/kg oral gavage once a day alone (CGS23425 0 ppm), fasted 18 hours) | Serum cholesterol lowering in rats (% reduction) (Serum total cholesterol; fenofibrate 25 mg/kg oral gavage once a day alone (CGS23425 0 ppm), fasted 18 hours, listed as fenofibrate)
1 | Cc1cc(NC(=O)C(=O)O)cc(C)c1Oc1ccc(O)c(C(C)C)c1 [CGS23425, N-[3,5-dimethyl-4-(4′-hydroxy-3′-isopropylphenoxy)-phenyl]-oxamic acid] | 13 ± 1.2 % reduction | 15.4 ± 2.3 % reduction | 18.4 ± 3.0 % reduction | 22.9 ± 2.5 % reduction | 21.1 ± 3.9 % reduction | 24.3 ± 1.7 % reduction | 4 ± 6 % reduction | 9±4 % reduction | 3 ± 7 % reduction | – | – | – | – | – | – | – | –
2 | CC(C)OC(=O)C(C)(C)Oc1ccc(C(=O)c2ccc(Cl)cc2)cc1 [Fenofibrate, fenofibrate] | – | – | – | – | – | – | – | – | – | 0.1 ± 2.5 % reduction | 3.5 ± 1.8 % reduction | 8.6 ± 3.4 % reduction | 12.1 ± 4.3 % reduction | 12.4 ± 7.5 % reduction | 14.3 ± 4.0 % reduction | 12 ± 5 % reduction | 12±5 % reduction
